Reference: patent publication US12263140B1, “Methods of reducing the production of greenhouse gases from animals” (AGRICULTURAL SCIENCES LIMITED, priority 2023, dated 2025)

Legend:
Type in all cases: in vivo
sheep [1] = assay: Sheep weight gain trial, vitamin K3 in drinking water, 22 days
From the text: A trial was completed using three randomly selected Wiltshire hogget wether sheep as the test subjects chosen from a wider group of sheep.
The test subject sheep were allowed access to the dosed water for a total of 5 days, after which the confinement was removed and the test subject and un-dosed control sheep mixed in the same field. From day 6 the test sheep grazed the wider field and received only un-dosed tap water, identical to the control sheep (see below).
The remaining wider group of sheep post removal of the three test subject sheep became the control sheep which were contained in a wider part of the same field as the test subject sheep for the first five days and then mixed with the test subject sheep after five days as noted above. The control sheep had access ad libitum to un-dosed tap water during the first five days of the trial and, as noted, the test sheep and control sheep both had access to the same tap water source ad libitum post the initial five days and to the trial end.
To account for this, two mature ewes from a neighbouring property (“naïve” sheep controls) were introduced to graze in the same field as the control sheep (and post day 5, the control and test sheep). The naïve sheep also had ad libitum access to un-dosed tap water for the duration of the trial. It was envisaged that the naïve sheep would re-infect the control and test sheep with methanogens once in the same field.
The sheep from each group were weighed at the start of the trial and after 22 days had concluded. The weight gain (or loss) was then calculated being the difference between the 22 day weight and that measured at the trial start.

sheep [2] = assay: Metabolic chamber trial of sheep drenched with vitamin K3
Protocol: Six one year old self shedding wether Wiltshire sheep were ranked by body weight and divided in to three strata or blocks. Block one contained the lightest sheep. Block 2 the mid-sized sheep, and Block 3 the heaviest sheep. Each of the sheep in each block was assigned at random to either be a control or experimental (dosed) individual.
The control group were not dosed at all.
Testing was completed at dosing and after 24 hours of methane emissions using a metabolic chamber. • The metabolic chamber used was made of sealed panel. All joints were made gas tight by sealing compounds, and the doors and hatches were made gas tight by rubber seals. The gas-tight metabolic chamber had viewing windows on one side, the top, and the exit door. Sheep entered after being weighed through an entrance door at one end. All doors and hatches were sealed by pull-down latches. • Air was introduced into the chamber by a 25 mm pipe assembly with the intake located in a pure air space area outside the work and animal holding areas. The air was propelled into the chamber by an electric impeller. The flow rate was set at 5 m·s^−1. Air inside the chamber was mixed by carefully placed baffles and an electric impeller to ensure even composition even when the animal burped out methane periodically.
When a sheep was introduced into the chamber it generally took between 2 and 3 minutes before the gas composition equilibrated and stayed constant. Readings were taken for few minutes once the gas levels had stabilised.
The dosing compound used as noted above, was human grade synthetic vitamin K3. This was dosed to the sheep as an aqueous oral fed drench.
A longer trial to the above was then completed with the same sheep.
Methane, carbon dioxide, volatile organic carbon (VOC) gas emissions and weight gain were measured at intervals during the trial time period of 241.2 hours.
Between being brought in for weighing and measuring, the sheep were allowed to graze normally on a grass field.

sheep [3] = assay: CO2 in exhalant of sheep dosed with vitamin K3 in drinking water; conditions: FIG. 24
sheep [4] = assay: Metabolic chamber trial of sheep drenched with vitamin K3; conditions: Example 15 text; stated to be based on earlier experiments using the Douglas Bag technique
sheep [5] = assay: Sheep methane output trial, vitamin K3 in drinking water; conditions: approximately 2 g per 20 litres drinking water; 48 h to 148 h, FIG. 21
Protocol: A trial was completed using Wiltshire hogget wether sheep.
The test sheep were able to drink further dosed water ad libitum while control sheep only had ad libitum access to tap water (un-dosed). Methane emitted by the test and control sheep was collected and emissions measured at intervals (48 h, 96 h, 120 h, 148 h).

sheep [6] = assay: TVOC and HCHO in exhalant breath of sheep dosed with vitamin K3 (skatole proxy)
Protocol: A trial was completed comparing the breath of test subject sheep dosed with vitamin K3 versus that of un-dosed sheep.
Total volatile organic compounds were measured in the exhalant breath of sheep. Two measurements were made being: • TVOC (Total Volatile Organic Compounds); and • HCHO (formaldehyde or equivalents).

[7] = Controls group: un-dosed water in trial, but dosed with vitamin K3 around two months before
[8] = Dosed group: 1.87 g in 20 litres drinking water, access for 5 days

Compound: vitamin K
- weight gain of control group (dosed two months earlier) relative to naïve sheep (sheep [1]; 22 days): 4-5 ×
- animal growth rate (sheep [2]; Example 15): increase in animal growth rate

Compound: CC1=CC(=O)c2ccccc2C1=O [vitamin K3]
- Daily weight gain (sheep [1]; [7]): 0.064
- Wt. Gain (kg) after 22 days (sheep [1]; [7]): 1.400 kg
- Daily weight gain (sheep [1]; [8]): 0.238
- Wt. Gain (kg) after 22 days (sheep [1]; [8]): 5.233 kg
- CO2 volume produced, less than control sheep (sheep [3]): 3 ×
- methane in one trial sheep (sheep [2]; Example 14, 24 hours post dosing): no detectable trace of methane
- average reduction in methane emissions versus control sheep (sheep [2]; Example 14, single drench 75 mg (76 mg) in 15 ml water, dosing to 24 hours): 96.4%
- distress during the trial (sheep [2]; Example 15): showed no distress
- greatest reduction of methane emissions in any sheep (sheep [2]; Example 15): 100%
- lowest value of the emission of methane from any sheep on any occasion (sheep [2]; Example 15): zero
- CO2 concentration after dosing, before subtracting air baseline (sheep [2]; Example 15, FIG. 18, metabolic chamber, from 1271 ppm): 610 ppm
- slope of best fit linear equation of mean body weight against HOURS (sheep [2]; Example 15, FIG. 19, R2=0.781): 2.18E-01
- total VOC in exhalant breath (sheep [2]; Example 15, FIG. 20): decreased over time
- average reduction in methane emissions (sheep [2]; Example 15, single drench 75 mg in 15 ml water, 241.2 hours trial): 80.5%
- duration of the reduction in methane emissions after the single dose (sheep [2]; Example 15, whole trial duration, no extra dosing): 241.2 h
- average reduction in carbon dioxide emissions (sheep [4]): 92%
- methane emissions levels lower than control sheep (sheep [5]): 3-4 times
- TVOC in breath, less than in un-dosed sheep (sheep [6]; FIG. 22): 4-5 times
- impact on favourable indole compounds (sheep [6]; inventor's observations, dosed sheep thrived): no negative impact
